Each structure is given as a SMILES string. Counter-ions that a name gives are not always drawn.

T1 sequence (P14842 whole entry): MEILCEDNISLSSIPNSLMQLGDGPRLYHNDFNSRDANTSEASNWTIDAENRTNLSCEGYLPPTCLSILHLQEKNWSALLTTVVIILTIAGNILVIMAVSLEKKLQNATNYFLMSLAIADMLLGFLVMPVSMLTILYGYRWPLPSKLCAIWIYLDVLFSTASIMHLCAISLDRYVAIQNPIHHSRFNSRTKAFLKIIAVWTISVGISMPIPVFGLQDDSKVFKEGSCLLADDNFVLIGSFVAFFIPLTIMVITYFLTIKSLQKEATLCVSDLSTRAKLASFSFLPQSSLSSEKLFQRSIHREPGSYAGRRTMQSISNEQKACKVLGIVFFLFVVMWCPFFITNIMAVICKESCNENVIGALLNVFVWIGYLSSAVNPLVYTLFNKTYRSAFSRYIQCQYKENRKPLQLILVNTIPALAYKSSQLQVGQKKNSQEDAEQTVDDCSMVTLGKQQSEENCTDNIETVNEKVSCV

One experiment concerns the target T1, 5HT2 Receptors (Rattus norvegicus, UniProt P14842).
T1 construct: from tissue; host or cells: rat external jugular vein (isolated, male Wistar)
In words: Apparent antagonist dissociation constant (KB) at 5HT2 receptors, serotonin-induced contraction of isolated rat external jugular vein. The experiment is classed as cell-based, rat (male Wistar).
Conditions: not given
An excerpt: Male Wistar rats (about 150-300 gram weight) were killed and their external jugular veins and thoracic aortas dissected free of connective tissue, cannulated in situ and placed in a modified Krebs' bicarbonate buffer in a suitable tissue bath. Two L-shaped 30-gauge stainless-steel hypodermic needles were inserted in each cannula and the dissected vessels gently pushed onto the needles. One needle was attached with thread to a stationary glass rod and the other to the transducer. [The procedure employed was that described by Hooker, Calkins and Fleisch, Blood Vessels, 14, 1, (1977) for use with circular smooth muscle preparations.]
The modified Krebs' bicarbonate buffer was composed of the following (concentrations in millimoles): sodium chloride, 118.2; potassium chloride, 4.6; calcium chloride dihydrate, 1.6; potassium dihydrogenphosphate, 1.2; magnesium sulfate, 1.2; dextrose, 10.0; sodium bicarbonate, 24.8; and water q.s. to 1000 g. The tissue baths were maintained at 37° C. and were aerated with 95% oxygen: 5% carbon dioxide (v:v). An initial optimum resting force of 1 g and 4 g was applied to the jugular vein and aorta, respectively. Isometric contractions were recorded as changes in grams of force on a Beckman Dynograph with Statham UC-3 transducers and microscale accessory attachment. Tissues were allowed to equilibrate 1 to 2 hours before exposure to drugs. Control responses to serotonin in the jugular vein and to norepinephrine in the aorta were obtained. The vessels were then incubated with appropriate concentrations of the test compound for one hour. Responses to serotonin or to norepinephrine were then repeated in the presence of the test compound. Contraction to serotonin was evaluated in the jugular vein since this tissue produces marked responses to serotonin in the absence of alpha receptors. See Cohen and Wiley, J. Pharm. Exp. Ther., 205, 400 (1978). Alpha receptor antagonist activity was evaluated in the aorta.
Apparent antagonist dissociation constants were determined for each concentration of the test compound according to the following equation: [formula] wherein [B] is the concentration of the antagonist and the dose ratio is the ED50 of the agonist in the presence of the antagonist divided by the control ED50. […] The -log KB values obtained for representative sensitive compounds of this invention and are given below in Table 1. ln the Table, column I provides the Example Number of the compound evaluated in the screen; columns 2-6, the identity of the compound evaluated in the screen when taken with the structure provided; and column 7, the apparent dissociation constant for the test compound.
By Kb is commonly meant the equilibrium dissociation constant of an antagonist, usually derived from a functional assay. In the case of `CO[C@H]1CC[C@H](NC(=O)[C@@H]2C[C@@H]3c4cccc5c4c(cn5C(C)C)C[C@H]3N(C)C2)CC1` (relative stereo) [Example 5, (8β)-trans-N-(4-Methoxycyclohexyl)-1-isopropyl-6-methylergoline-8-carboxamide], the Kb is 186 pM. Consider `CCCN1C[C@H](C(=O)NC2CCCCC2)C[C@@H]2c3cccc4c3c(cn4C(C)C)C[C@H]21` [Example 3, (8β)-N-Cyclohexyl-1-isopropyl-6-n-propylergoline-8-carboxamide], for which the Kb was 794 pM. The same measure, in the same setting: the same measure for `CO[C@H]1CC[C@@H](NC(=O)[C@@H]2C[C@@H]3c4cccc5c4c(cn5C)C[C@H]3N(C)C2)CC1` [Example 6, (8β)-cis-N-(4-Methoxycyclohexyl)-1,6-dimethylergoline-8-carboxamide maleate]: 269 pM; for `CCn1cc2c3c(cccc31)[C@H]1C[C@@H](C(=O)N[C@H]3CC[C@@H](OC)CC3)CN(C)[C@@H]1C2` [Example 7, (8β)-cis-N-(4-Methoxycyclohexyl)-1-ethyl-6-methylergoline-8-carboxamide maleate]: 229 pM; for `CN1C[C@H](C(=O)NC2CCCCC2)C[C@@H]2c3cccc4c3c(cn4C)C[C@H]21` [Example 8, (8β)-N-Cyclohexyl-1,6-dimethylergoline-8carboxamide]: 200 pM. Same read-out and setting: in the case of `CC(C)n1cc2c3c(cccc31)[C@H]1C[C@@H](C(=O)NC3CCCC3)CN(C)[C@@H]1C2` [Example 9, (8β)-N-Cyclopentyl-1-isopropyl-6-methylergoline-8-carboxamide] it was 46.8 pM; in that of `CCn1cc2c3c(cccc31)[C@H]1C[C@@H](C(=O)NC3CCCCC3)CN(C)[C@@H]1C2` [Example 10, (8β)-N-Cyclohexyl-1-ethyl-6-methylergoline-8-carboxamide], 562 pM. Same read-out and setting: in the case of `CC(C)n1cc2c3c(cccc31)[C@H]1C[C@@H](C(=O)NC3CCCCCC3)CN(C)[C@@H]1C2` [Example 12, (8β)-N-Cycloheptyl-1-isopropyl-6-methylergoline-8-carboxamide] it was 1050 pM.

As for `CC1CCC(NC(=O)[C@@H]2C[C@@H]3c4cccc5c4c(cn5C(C)C)C[C@H]3N(C)C2)CC1` (stereo partly drawn) [Example 13, (8β)-N-(4-Methylcyclohexyl)-1-isopropyl-6-methylergoline-8-carboxamide], the antagonist equilibrium constant (Kb) is 6460 pM.

For the molecule `CC(C)n1cc2c3c(cccc31)[C@H]1C[C@@H](C(=O)NC3CCCCC3O)CN(C)[C@@H]1C2` (stereo partly drawn) [Example 14, (8β)-N-(2-Hydroxycyclohexyl)-1-isopropyl-6-methylergoline-8-carboxamide], the Kb is 27.5 pM.

The same experiment, now with this note: rat external jugular vein, antagonism of serotonin contraction, 1 h incubation, 37° C; read-out: 5HT2 -Log KB (apparent dissociation constant) (converted).
For `CC(C)n1cc2c3c(cccc31)[C@H]1C[C@@H](C(=O)N(C)C3CCCCC3)CN(C)[C@@H]1C2` [Example 2, (8β-N-Cyclohexyl-N-methyl-1-isopropyl-6-methylergoline-8-carboxamide maleate], the Kb was 1000 pM. Still for that read-out and setting: in the case of `CO[C@H]1CC[C@@H](NC(=O)[C@@H]2C[C@@H]3c4cccc5c4c(cn5C(C)C)C[C@H]3N(C)C2)CC1` [Example 4, (8β)-cis-N-(4-Methoxycyclohexyl)-1-isopropyl-methylergoline-8-carboxamide] it was 186 pM; in that of `CC(C)n1cc2c3c(cccc31)[C@H]1C[C@@H](C(=O)N[C@H]3CC[C@H](O)CC3)CN(C)[C@@H]1C2` [Example 11, (8β)-trans-N-(4-Hydroxycyclohexyl)-1-isopropyl-methylergoline-8-carboxamide], 6460 pM.

The values are drawn from patent US4931447A, “Cycloalkylamides of (8β)-1-alkyl-6-(substituted) ergolines” (Eli Lilly and Company, priority 1989, dated 1990).
